Test: xn = mol fraction of the nth substance listed

CC(C)(C)N + Cc1ccccc1
303.15 K, 101 kPa
Conditions | viscosity [mPa·s]
x2 = 0.1549 | 0.4385
x2 = 0.2226 | 0.4405
x2 = 0.3039 | 0.4431
x2 = 0.3981 | 0.4489
x2 = 0.522 | 0.458
x2 = 0.6221 | 0.4693
x2 = 0.7184 | 0.4824
x2 = 0.8751 | 0.5067

BrC(Br)Br + ClC(Cl)(Cl)Cl
Conditions | viscosity [mPa·s]
298 K, 101.3 kPa, x1 = 0.1194 | 0.965
298 K, 101.3 kPa, x1 = 0.2186 | 1.037
298 K, 101.3 kPa, x1 = 0.3128 | 1.115
298 K, 101.3 kPa, x1 = 0.4431 | 1.231
298 K, 101.3 kPa, x1 = 0.5248 | 1.308
298 K, 101.3 kPa, x1 = 0.6217 | 1.397
298 K, 101.3 kPa, x1 = 0.7153 | 1.477
298 K, 101.3 kPa, x1 = 0.8068 | 1.609
298 K, 101.3 kPa, x1 = 0.8986 | 1.753
318 K, 101.33 kPa, x1 = 0.1597 | 0.8215
318 K, 101.33 kPa, x1 = 0.3179 | 0.9131
318 K, 101.33 kPa, x1 = 0.5191 | 1.056
318 K, 101.33 kPa, x1 = 0.6651 | 1.164
318 K, 101.33 kPa, x1 = 0.8607 | 1.328

C=Cc1ccccc1 + ClC(Cl)Cl
viscosity [mPa·s], 101.33 kPa
Conditions | x1 = 0.101 | x1 = 0.2004 | x1 = 0.3009 | x1 = 0.4022 | x1 = 0.5055 | x1 = 0.5997 | x1 = 0.705 | x1 = 0.7962 | x1 = 0.9
298.15 K | 0.5838 | 0.6109 | 0.6357 | 0.6615 | 0.6849 | 0.7054 | 0.7267 | 0.7443 | 0.7286
303.15 K | 0.5575 | 0.5816 | 0.6033 | 0.628 | 0.6463 | 0.6686 | 0.6832 | 0.6993 | 0.6841
308.15 K | 0.5324 | 0.5513 | 0.5742 | 0.5915 | 0.6109 | 0.6272 | 0.6447 | 0.6581 | 0.6521

BrC(Br)Br + ClCCCCCl
viscosity [mPa·s], 101 kPa
Conditions | x1 = 0.0978 | x1 = 0.197 | x1 = 0.2974 | x1 = 0.3963 | x1 = 0.496 | x1 = 0.5975 | x1 = 0.6963 | x1 = 0.7994 | x1 = 0.8972
298.15 K | 1.382 | 1.455 | 1.538 | 1.607 | 1.677 | 1.748 | 1.813 | 1.868 | 1.924
303.15 K | 1.278 | 1.346 | 1.423 | 1.489 | 1.556 | 1.624 | 1.686 | 1.743 | 1.803
308.15 K | 1.184 | 1.247 | 1.32 | 1.381 | 1.446 | 1.507 | 1.573 | 1.625 | 1.687
313.15 K | 1.099 | 1.158 | 1.232 | 1.281 | 1.34 | 1.401 | 1.462 | 1.52 | 1.578

BrC(Br)Br + N#CCc1ccccc1
298.15 K, 101 kPa
Conditions | viscosity [mPa·s]
x1 = 0.1271 | 1.937
x1 = 0.2393 | 2
x1 = 0.3546 | 2.087
x1 = 0.5011 | 2.112
x1 = 0.601 | 2.117
x1 = 0.6932 | 2.08
x1 = 0.7999 | 2.027
x1 = 0.889 | 1.966

BrC(Br)Br + N#Cc1ccccc1
298.15 K, 101 kPa
Conditions | viscosity [mPa·s]
x1 = 0.1782 | 1.372
x1 = 0.3333 | 1.548
x1 = 0.4937 | 1.727
x1 = 0.6066 | 1.861
x1 = 0.7005 | 1.88
x1 = 0.8886 | 1.893

CC(C)(C)N + NC1CCCCC1
298.15 K, 101 kPa
Conditions | viscosity [mPa·s]
x2 = 0.0757 | 0.569
x2 = 0.1557 | 0.7445
x2 = 0.2401 | 0.9554
x2 = 0.3296 | 1.173
x2 = 0.4244 | 1.407
x2 = 0.5252 | 1.612
x2 = 0.6324 | 1.785
x2 = 0.7468 | 1.894
x2 = 0.8691 | 1.915

CCCCCCCCO + NCCO
viscosity [mPa·s], 101.3 kPa
Conditions | x2 = 0.1 | x2 = 0.2 | x2 = 0.3 | x2 = 0.4 | x2 = 0.5 | x2 = 0.6 | x2 = 0.7 | x2 = 0.8 | x2 = 0.9
303.15 K | 6.48 | 6.8 | 7.36 | 8.14 | 9.01 | 9.97 | 11 | 12.1 | 13.4
313.15 K | 4.68 | 4.93 | 5.28 | 5.77 | 6.27 | 6.83 | 7.48 | 8.16 | 8.98
323.15 K | 3.49 | 3.68 | 3.92 | 4.23 | 4.55 | 4.9 | 5.34 | 5.79 | 6.29

BrC(Br)Br + Nc1ccccc1
298.15 K, 101 kPa
Conditions | viscosity [mPa·s]
x1 = 0.1402 | 3.373
x1 = 0.2067 | 3.235
x1 = 0.3151 | 3.026
x1 = 0.4133 | 2.856
x1 = 0.5137 | 2.657
x1 = 0.614 | 2.486
x1 = 0.701 | 2.349
x1 = 0.808 | 2.196

BrC(Br)Br + Nc1ccccc1Cl
viscosity [mPa·s], 101 kPa
Conditions | x1 = 0.1006 | x1 = 0.1969 | x1 = 0.3023 | x1 = 0.3984 | x1 = 0.5023 | x1 = 0.5997 | x1 = 0.6951 | x1 = 0.8013 | x1 = 0.8983
298.15 K | 2.948 | 2.901 | 2.784 | 2.699 | 2.585 | 2.453 | 2.342 | 2.208 | 2.096
303.15 K | 2.693 | 2.616 | 2.509 | 2.425 | 2.326 | 2.244 | 2.15 | 2.045 | 1.955
308.15 K | 2.378 | 2.33 | 2.267 | 2.197 | 2.122 | 2.065 | 1.981 | 1.896 | 1.82
313.15 K | 2.122 | 2.102 | 2.062 | 1.995 | 1.96 | 1.896 | 1.831 | 1.764 | 1.697

C[C@@H](O)[C@H](N)C(=O)O + O
101 kPa
Conditions | viscosity [mPa·s]
293.15 K, x1 = 0.001804 | 1.036
293.15 K, x1 = 0.0107 | 1.226
298.15 K, x1 = 8.95e-05 | 0.9002
298.15 K, x1 = 0.0001801 | 0.9048
298.15 K, x1 = 0.001819 | 0.9278
298.15 K, x1 = 0.003526 | 0.9547
298.15 K, x1 = 0.005296 | 0.9865
298.15 K, x1 = 0.007341 | 1.02
298.15 K, x1 = 0.008519 | 1.047
298.15 K, x1 = 0.01104 | 1.075
298.15 K, x1 = 0.01269 | 1.105
298.15 K, x1 = 0.01399 | 1.136
303.15 K, x1 = 0.007153 | 0.904
303.15 K, x1 = 0.01245 | 0.9968
305.15 K, x1 = 0.00036 | 0.788
305.15 K, x1 = 0.0007203 | 0.7937
305.15 K, x1 = 0.00108 | 0.7998
305.15 K, x1 = 0.001439 | 0.8055
305.15 K, x1 = 0.001798 | 0.8106
305.15 K, x1 = 0.002157 | 0.8163
308.15 K, x1 = 8.95e-05 | 0.7885
308.15 K, x1 = 0.0001801 | 0.7945
308.15 K, x1 = 0.001819 | 0.8025
308.15 K, x1 = 0.003526 | 0.8241
308.15 K, x1 = 0.005296 | 0.8417
308.15 K, x1 = 0.007341 | 0.8612
308.15 K, x1 = 0.008519 | 0.8741
308.15 K, x1 = 0.01104 | 0.9001
308.15 K, x1 = 0.01269 | 0.9289
308.15 K, x1 = 0.01399 | 0.9456
310.15 K, x1 = 0.00036 | 0.707
310.15 K, x1 = 0.0007203 | 0.7122
310.15 K, x1 = 0.00108 | 0.7174
310.15 K, x1 = 0.001439 | 0.7223
310.15 K, x1 = 0.001798 | 0.7263
310.15 K, x1 = 0.002157 | 0.7313
313.15 K, x1 = 0.008929 | 0.758
313.15 K, x1 = 0.0107 | 0.7828
313.15 K, x1 = 0.01245 | 0.8054
315.15 K, x1 = 0.00036 | 0.6527
315.15 K, x1 = 0.0007203 | 0.6576
315.15 K, x1 = 0.00108 | 0.6612
315.15 K, x1 = 0.001439 | 0.6656
315.15 K, x1 = 0.001798 | 0.6694
315.15 K, x1 = 0.002157 | 0.6737
318.15 K, x1 = 8.95e-05 | 0.6814
318.15 K, x1 = 0.0001801 | 0.6945
318.15 K, x1 = 0.001819 | 0.7042
318.15 K, x1 = 0.003526 | 0.7214
318.15 K, x1 = 0.005296 | 0.7356
318.15 K, x1 = 0.007341 | 0.7565
318.15 K, x1 = 0.008519 | 0.7645
318.15 K, x1 = 0.01104 | 0.7898
318.15 K, x1 = 0.01269 | 0.8045
318.15 K, x1 = 0.01399 | 0.8214
323.15 K, x1 = 0.00359 | 0.5782
323.15 K, x1 = 0.007153 | 0.6118

— the CheMixHub viscosity set
